Series [1] in a line: Stability in 0.01 M Tris/HCl buffer at pH 7.4 at 4 degC days by HPLC. It counts as physicochemical.
Series [2] can be described thus: Aqueous solubility in 0.01 M Tris/HCl buffer at pH 7.4 by HPLC. It counts as physicochemical.
The test system of a further series is Xenopus laevis. Kind of series: Anesthetic activity in Xenopus laevis tadpoles assessed as loss of righting reflexes. It is filed as functional, organism-based. Particulars: Tadpole.
Series [3] addresses GABA-A receptor; alpha-1/beta-2/gamma-2 (Homo sapiens) (UniProt P14867+P47870+P18507). To be noted: Oocyte, 80 uM.
Series [4] deals with T1, Gamma-aminobutyric acid receptor subunit alpha-1 (Homo sapiens) (UniProt P14867).
T1 sequence (whole entry): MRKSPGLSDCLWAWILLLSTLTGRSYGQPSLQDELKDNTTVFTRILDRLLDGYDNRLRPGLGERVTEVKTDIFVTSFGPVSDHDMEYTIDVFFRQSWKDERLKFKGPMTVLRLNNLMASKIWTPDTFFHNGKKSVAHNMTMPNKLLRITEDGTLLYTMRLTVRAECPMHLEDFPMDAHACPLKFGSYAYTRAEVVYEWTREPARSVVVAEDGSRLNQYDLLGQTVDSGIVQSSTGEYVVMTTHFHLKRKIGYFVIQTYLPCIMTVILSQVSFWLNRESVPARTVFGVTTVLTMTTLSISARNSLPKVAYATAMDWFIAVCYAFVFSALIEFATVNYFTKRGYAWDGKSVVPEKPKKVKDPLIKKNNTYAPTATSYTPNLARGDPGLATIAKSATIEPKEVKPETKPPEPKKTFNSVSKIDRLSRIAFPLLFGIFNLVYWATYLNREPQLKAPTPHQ
Particulars: HEK293S, 200 uM.

Series [5] concerns the target T2, Gamma-aminobutyric acid receptor subunit beta-3 (Homo sapiens) (UniProt P28472).
T2 sequence (whole entry): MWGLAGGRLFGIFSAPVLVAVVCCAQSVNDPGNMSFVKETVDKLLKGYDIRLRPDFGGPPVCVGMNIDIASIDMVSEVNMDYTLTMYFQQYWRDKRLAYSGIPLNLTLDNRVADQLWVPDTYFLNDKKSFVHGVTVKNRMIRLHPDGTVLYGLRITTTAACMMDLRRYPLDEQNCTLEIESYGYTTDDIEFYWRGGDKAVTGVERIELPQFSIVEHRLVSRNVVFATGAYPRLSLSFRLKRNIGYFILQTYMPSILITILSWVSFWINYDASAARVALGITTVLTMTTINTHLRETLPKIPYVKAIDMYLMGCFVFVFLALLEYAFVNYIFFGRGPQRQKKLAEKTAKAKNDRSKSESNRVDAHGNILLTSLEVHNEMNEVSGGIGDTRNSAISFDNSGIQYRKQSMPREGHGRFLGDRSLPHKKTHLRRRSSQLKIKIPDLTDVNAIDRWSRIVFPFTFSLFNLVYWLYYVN
To be noted: HEK293S, 200 uM.

For series [6], the target named is T3, Gamma-aminobutyric acid receptor subunit beta-3 (Homo sapiens, UniProt P28472).
T3 sequence (P28472 whole entry): T2 sequence (whole entry)
Nature of the series: biochemical.

Values after ≈ are worked out from the molar mass of the structure shown.

In series [1], `C=CCC1(c2cccc(C3(C(F)(F)F)N=N3)c2)C(=O)NC(=O)N(C)C1=O` (racemic) came in with a Stability of 2.5 days. Also, in series [2] (buffer), the solubility amounted to 80 µM (≈ 29.3 µg/mL).

Regarding `CCC1(c2ccccc2)C(=O)NC(=O)N(C)C1=O` (stereo not given) [MEPHOBARBITAL], in series [2] (0.01 M Tris/HCl buffer, read-out: solubility), the solubility worked out at 600 µM (≈ 148 µg/mL).

With `C=CC[C@]1(c2cccc(C3(C(F)(F)F)N=N3)c2)C(=O)NC(=O)N(C)C1=O`, the EC50 in the series on Xenopus laevis was found to be 38 µM. In addition, the inhibition in series [3] stood at 40%.

In the case of `C=CC[C@@]1(c2cccc(C3(C(F)(F)F)N=N3)c2)C(=O)NC(=O)N(C)C1=O`, the EC50 with Xenopus laevis amounted to 3.7 µM. The inhibition in series [4] and in series [5] was > 90% each time.

On to `CCCC(C)C1(CC)C(=O)NC(=O)NC1=O` (stereo not given) [PENTOBARBITAL], for which the EC50 with Xenopus laevis is 65 µM. Moreover, the IC50 in series [6] amounted to 88 µM.

By solubility is commonly meant the dissolved amount per volume that the medium holds. By EC50 is commonly meant the concentration needed to bring the measured effect to its halfway point. Usually inhibition stands for the drop in the measured response relative to a control, in per cent. Read a high inhibition as strong suppression. For orientation: IC50 means the concentration at which inhibition is half-maximal. A high value points to weaker potency in that assay.
